The values that follow come from US7799757B2, “Analogs of parathyroid hormone and PTH-related protein as bone anabolic agents” (priority 2002, dated 2010).

Broadly, the EC50 is the midpoint of the concentration-response curve. What is called IC50 is the concentration that gives 50% inhibition.

Non-standard residues stand in square brackets, D forms with d. Residues, ends and D or L forms follow the SMILES beside them. No end group written: not given here. 2Nal = N[C@@H](Cc1ccc2ccccc2c1)C(=O)O; 2Thi = N[C@@H](Cc1cccs1)C(=O)O; β3hL = CC(C)C[C@H](N)CC(=O)O; Nle = CCCC[C@H](N)C(=O)O; βAla = NCCC(=O)O Where only a bound is given, the exact number is not on record here.

In assay [1] the test system is adenylate cyclase in SaOS-2/B10 cells. The experiment in a line: Stimulation of adenylate cyclase activity in SaOS-2/B10 cells. Conditions: 1 mM IBMX, 5 min incubation, read-out: EC50 (half maximal stimulation of adenylate cyclase). In kind it is cell-based. As to the method:
The adenylate cyclase activity induced by each of the tested polypeptides of the invention was also measured in SaOS-2/B 10 cells as described previously (Rodain et al., J. Clin. Invest. (1983) 72,1511; Goldman, et al., Endocrinology (1988) 123, 1468). Conflúnt SaOS-2/B10 cells in 24 wells plates were incubated with 0.5 μCi [^3H]adenine (26.9 Ci/mmol, New England Nuclear, Boston, Mass. in fresh medium at 37° C. for 2 hrs. and washed twice with Hank's solution. The cells were treated with 1 mM IBMX (isobutylmethylxanthine, Sigma, St. Louis, Mo.) in fresh medium for 15 min. and a tested PTH analog was added to the medium to incubate for 5 min. The reaction was stopped by the addition of 1.2M TCA followed by sample neutralization with 4N KOH. Cyclic AMP was isolated by the two-column chromatographic method (Salomon, et al., Anal. Biochem. (1974) 58, 541). The radioactivity was counted in a scintillation counter (Liquid scintillation counter 2200CA, PACKARD, Downers Grove, Ill.).

A further assay relates to SaOS-2/B10 cells. The class given is binding. Conditions: 2 h. As to the method:
SaOS-2/B10 cells were maintained in RPMI1640 medium supplemented with 10% fetal bovine serum (FBS) and 2 mM glutamine at 37° C. in a humidified atmosphere of 5% CO2 in air. The medium was changed every three to four days, and the cells were subcultured every week by trypsinization.
SaOS-2/B10 cells were maintained for four days after they had reached confluence. The medium was replaced with 5% FBS […] medium and incubated for 2 hrs at room temperature with 10×10^4 cpm mono-^125I-[Nle^8,18,Tyr^34(3-^125I)]bPTH(1-34)NH2 in the presence or absence of a competing tested polypeptide of the invention. The cells were washed four times with ice-cold PBS and lysed with 0.1M NaOH, and the radioactivity associated with the cells was counted in a scintillation counter. Synthesis of the radiolabelled [Nle^8,18,Tyr^34(3-^125I)]bPTH(1-34)NH2 was carried out as described in Goldman M. E., et al., Endocrinology, (1988), 123, 1468-1475.
The binding assay was conducted on the polypeptides of the invention having SEQ ID NO:5, 6, 7, 9, 10, 11, and 12.

For assay [2], the target named is T1, recombinant hPTH1-receptor (Homo sapiens, UniProt Q03431).
T1 construct: expressed in transfected cells
T1 sequence (Q03431 27-593): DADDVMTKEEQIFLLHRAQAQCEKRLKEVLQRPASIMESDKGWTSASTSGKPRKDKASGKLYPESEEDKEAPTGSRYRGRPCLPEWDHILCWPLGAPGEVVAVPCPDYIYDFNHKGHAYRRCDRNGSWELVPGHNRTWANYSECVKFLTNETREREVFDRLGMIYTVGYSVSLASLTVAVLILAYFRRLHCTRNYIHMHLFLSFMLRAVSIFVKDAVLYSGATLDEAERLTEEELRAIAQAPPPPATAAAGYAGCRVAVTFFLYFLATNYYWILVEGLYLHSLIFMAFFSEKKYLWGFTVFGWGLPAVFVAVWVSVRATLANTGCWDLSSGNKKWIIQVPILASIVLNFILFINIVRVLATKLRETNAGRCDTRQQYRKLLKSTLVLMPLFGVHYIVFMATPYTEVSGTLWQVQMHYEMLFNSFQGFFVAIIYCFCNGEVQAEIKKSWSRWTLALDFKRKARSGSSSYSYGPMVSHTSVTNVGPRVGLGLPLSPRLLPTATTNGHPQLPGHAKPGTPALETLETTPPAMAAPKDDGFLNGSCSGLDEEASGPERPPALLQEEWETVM
The experiment in a line: Radioreceptor competition binding, 125I-PTH(1-34), HEK293/C21 cells. Conditions: 125I-PTH(1-34) ~0.1 nM, 2 h at room temperature. As to the method:
Human embryonic kidney (HEK293) cells, stably transfected with recombinant hPTH1-receptor (HEK293/C21 cell line, ˜400,000 receptors/cell) (Pines, M., Adams, A. E., Stueckle, S., Bessalle, R., Rashti-Behar, V., Chorev, M., Rosenblatt, M., and Suva, L. J. Endocrinology 1994, 135, 1713-1716), were maintained in D-MEM medium supplemented with 10% fetal bovine serum and […] glutamine at 37° C. in a humidified atmosphere of 95% air/5% CO2. The medium was changed every 3-4 days, and the cells were subcultured every week. Ligand stimulated adenylyl cyclase activity and radioreceptor competition binding assays were performed on confluent cultures, 1-3 days after a change of medium.
[Nle^8,18,Nal^23,Tyr^34]bPTH(1-34)-NH2 was radioiodinated and the crude material was purified as previously described (Roubini, E., Duong, L. T., Gibbons, S. W., Leu, C. T., Caulfield, M. P., Chorev, M., and Rosenblatt, M. Biochemistry 1992, 31, 4026-4033). […] The pure mono-radioiodinated peptide was isolated on an analytical RP-HPLC Vydac Protein C18 column (The Separation Group, Hesperia, Calif.) employing a linear gradient of 36-42% B in A for 30 min (A, 0.1% TFA in water; B, 0.1% TFA in acetonitrile) at a flow rate of 1 mL/min, and monitored at 220 nm. […]

In assay [3] the test system is PTH-stimulated adenylate cyclase. Conditions: background, literature report; cited from earlier work.
The test system of a further assay is renal PTH receptors. Conditions: background, literature report; cited from earlier work.

For `CC[C@H](C)[C@H](NC(=O)[C@H](CO)NC(=O)[C@H](CCCCN)NC(=O)CNC(=O)[C@H](CCCCN)NC(=O)[C@H](CC(=O)O)NC(=O)[C@H](Cc1c[nH]cn1)NC(=O)[C@H](CC(C)C)NC(=O)[C@H](CC(C)C)NC(=O)[C@H](CCC(N)=O)NC(=O)[C@H](Cc1c[nH]cn1)NC(=O)[C@H](CCC(=O)O)NC(=O)[C@H](CO)NC(=O)[C@@H](NC(=O)[C@H](C)N)C(C)C)C(=O)N[C@@H](CCC(N)=O)C(=O)N[C@@H](CC(=O)O)C(=O)N[C@@H](CC(C)C)C(=O)N[C@@H](CCCNC(=N)N)C(=O)N[C@@H](CCCNC(=N)N)C(=O)N[C@@H](CCCNC(=N)N)C(=O)N[C@@H](CCC(=O)O)C(=O)N[C@@H](CC(C)C)C(=O)N[C@@H](CC(C)C)C(=O)N[C@@H](CCC(=O)O)C(=O)N[C@@H](CCCCN)C(=O)N[C@@H](CC(C)C)C(=O)N[C@@H](CC(C)C)C(=O)N[C@@H](CCC(=O)O)C(=O)N[C@@H](CCCCN)C(=O)N[C@@H](CC(C)C)C(=O)N[C@@H](Cc1cccs1)C(=O)N[C@H](C(=O)N[C@@H](C)C(N)=O)[C@@H](C)O` [SEQ ID NO: 9, [Glu^22,25,29,Leu^23,28,31,Lys^26,30,Thi^32]hPTHrP(1–34)NH2] (H-AVSEHQLLHDKGKSIQDLRRRELLEKLLEKL[2Thi]TA-NH2; N-terminus assumed), the EC50 in assay [1] was determined as 10 nM. For the same compound, it took 90 nM to reach half-maximal inhibition with SaOS-2/B10 cells (IC50).
As to `CCCC[C@H](NC(=O)[C@H](Cc1ccccc1)NC(=O)[C@H](CCC(N)=O)NC(=O)[C@@H](NC(=O)[C@H](CCC(=O)O)NC(=O)[C@H](CO)NC(=O)[C@@H](NC(=O)[C@H](C)N)C(C)C)[C@@H](C)CC)C(=O)N[C@@H](Cc1c[nH]cn1)C(=O)N[C@@H](CC(N)=O)C(=O)N[C@@H](CC(C)C)C(=O)NCC(=O)N[C@@H](CCCCN)C(=O)N[C@@H](Cc1c[nH]cn1)C(=O)N[C@@H](CC(C)C)C(=O)N[C@@H](CO)C(=O)NCCC(=O)N[C@H](CC(=O)NCCC(=O)N[C@@H](CCCNC(=N)N)C(=O)N[C@H](C(=O)N[C@@H](CCC(=O)O)C(=O)N[C@@H](Cc1ccc2ccccc2c1)C(=O)N[C@@H](CC(C)C)C(=O)N[C@@H](CCCNC(=N)N)C(=O)N[C@@H](CCCCN)C(=O)N[C@@H](CCCCN)C(=O)N[C@@H](CC(C)C)C(=O)N[C@@H](CCC(N)=O)C(=O)N[C@@H](CC(=O)O)C(=O)N[C@H](C(=O)N[C@@H](Cc1c[nH]cn1)C(=O)N[C@@H](CC(N)=O)C(=O)N[C@@H](Cc1ccc(O)cc1)C(N)=O)C(C)C)C(C)C)CC(C)C` [SEQ ID NO: 17, [Nle^8,β-Ala^17,19,β-hLeu^18,Nal^23,Tyr^34]bPTH(1–34)NH2] (H-AVSEIQF[Nle]HNLGKHLS[βAla][β3hL][βAla]RVE[2Nal]LRKKLQDVHNY-NH2; N-terminus assumed), the IC50 in assay [2] was > 1000 nM.
As for “AVSEHQLLHDKGKSIQDLRRREFLEKLIEKIHTA-NH2 [SEQ ID NO: 12, [Glu^22,25,29,Lys^26,30]hPTHrP(1–34)NH2]”, the EC50 in assay [1] worked out at 0.42 nM. The same compound had an IC50 with SaOS-2/B10 cells of 5.5 nM.
For the compound “AVSEHQLLHDKGKSIQDLRRRELLEKLLELLHTA-NH2 [SEQ ID NO: 10, [Glu^22,25,29,Leu^23,28,30,31,Lys^26]hPTHrP(1–34)NH2]”, in assay [1], the EC50 was 5 nM. This compound showed an IC50 with SaOS-2/B10 cells of 70 nM.
Regarding “AVSEHQLLHDKGKSIQDLRRRFLLHHLLAELHTA-NH2 [SEQ ID NO: 11, [Leu^23,28,31]hPTHrP(1–34)NH2]”, the EC50 in assay [1] is 0.74 nM. This compound yielded an IC50 in the assay on SaOS-2/B10 cells of 18.3 nM.
On to “PTH(1 -25) (SVSEIQLMHNLGKHLNSMERVEWLR; Parathyroid hormone; UniProt P01270 32-56, looked up, fragment) [carboxyl-terminally truncated PTH fragment of residues 1-25]”, for which, in assay [3], the “activity of carboxyl-terminally truncated PTH” value is “essentially inactive”.
With “PTH(25-34) (RKKLQDVHNF; Parathyroid hormone; UniProt P01270 56-65, looked up, fragment) [PTH fragment of residues 25-34]”, in the assay on renal PTH receptors, the “receptor binding / affinity for renal PTH receptors” value is on record as “weak receptor binding activity”.
In the case of “SVSEIQLMHNLGKHLNSMERVELLEKLLEKLHNF-NH2 [SEQ ID NO: 5, [Glu^25,29,Leu^23,27,31,Lys^30]hPTH(1–34)NH2]”, in assay [1], the concentration for a half-maximal effect (EC50) came to 24 nM. Also, inhibition with SaOS-2/B10 cells was half-maximal at 216 nM (IC50).
In the case of “SVSEIQLMHNLGKHLNSMERVELLRKLLQDLHNF-NH2 [SEQ ID NO: 7, [Leu^23,27,31]hPTH(1–34)NH2]”, in assay [1], the half-maximal effective concentration (EC50) amounted to 1.12 nM. The same compound had an IC50 in the assay on SaOS-2/B10 cells of 41 nM.
In the case of “SVSEIQLMHNLGKHLNSMERVEWLEKKLEKVHNF-NH2 [SEQ ID NO: 6, [Glu^25,29,Lys^30]hPTH(1–34)NH2]”, in assay [1], the EC50 came out at 25.5 nM. The compound further yielded an IC50 with SaOS-2/B10 cells of 30 nM.
Consider [Tyr^34]bPTH(7-34)NH2, for which the “receptor binding / affinity for renal PTH receptors” value with renal PTH receptors was “moderate affinity”. In assay [3], the agonist activity entry is “does not have any agonist activity”.
